Test results published in patent US20060286131A1, “Use of stellate ganglion block for the treatment of hot flashes and other conditions” (priority 2005, published 2006).

Test system: severe menopausal hot flashes
Assay: stellate ganglion block with Marcaine in women with hot flashes, self-reported pre and post block
Type: in vivo
Description: A stellate ganglion block is illustratively performed by placing the patient in the supine position (on the back) with the neck slightly extended and the jaw open. While the patient is usually conscious for the procedure, a medication such as Versed (midazolam hydrochloride), fentanyl, or other sedative is often administered, to relax the patient. A local anesthetic is also usually administered, to numb the skin and tissue down to the ganglion nerve. A needle is inserted toward the stellate ganglion. […] The needle 20 is shown inserted adjacent to the stellate ganglion 10. In the illustrative block, a contrast solution is injected through needle 20 via syringe 22, and the needle position is confirmed by fluoroscopy or other means, as are known in the art.
The anesthetic 30 is then injected via needle 20 into stellate ganglion 10. Illustratively, 5 cc 0.375% Marcaine® (bupivacaine) may be used. However, it is understood that other anesthetics, illustratively lidocaine, morphine or other opioids, clonidine, botox, or tetracine, or a combination of anesthetic and epinephrine, may be used and that the dosage range may vary depending on the particular anesthetic and other factors, as are known in the art. Needle 20 is removed, and the patient is optionally placed in the sitting position to facilitate the spread of anesthesia inferiorly to the stellate ganglion. Illustratively, longer acting anesthetics such as bupivacaine are used, but other anesthetics may be used, as are known in the art. The stellate ganglion block may also be performed by radiofrequency lesioning, as is known in the art.
Six women suffering from severe menopausal hot flashes each received a standard stellate ganglion block (0.375% Marcaine, 5cc), as described above. Hot flashes were assessed by self-reporting pre and post stellate ganglion block.

Q: Which “additional asymptomatic period of relief after second stellate ganglion block” value (0.375% Marcaine 5cc, second block after mild hot flashes returned) does the source give for CCCCN1CCCCC1C(=O)Nc1c(C)cccc1C (stereo not shown) [Marcaine, bupivacaine] here?
A: The value was 4-18 weeks.

Q: And the “hot flash relief of repeated blocks compared with the initial block” value (repeated blocks, each case)?
A: Its value is “equal to or greater than that of the initial block”.

Q: And the “success of initial stellate ganglion block, evidenced by positive Horner's syndrome and anhydrosis” value (six women, 0.375% Marcaine 5cc)?
A: Its value is “successful in all six subjects”.

Q: What about the “complete alleviation of hot flashes, duration after initial stellate ganglion block” value (six women, 0.375% Marcaine 5cc, first block, self-reported) of the same compound?
A: The value was 2-5 weeks.
